Results on one compound are retold here after BindingDB's records for patent US10167299 (Shanghai Institute of Material Medica, Chinese Academy of …, 2019).

The structures appear in SMILES notation. pIC50: −log10 of the molar value.

This test deals with C-C chemokine receptor type 5 (Homo sapiens, UniProt P51681). The test is described as follows: Calcium Flux Inhibition Experiment. The method, then: 1. […] The medium in each well into which cells were innoculated was removed and 40 μl/well of freshly prepared dye was added. […] The dye was removed. […] FlexStation II was used for detection.
Sequence of C-C chemokine receptor type 5 (P51681 whole entry): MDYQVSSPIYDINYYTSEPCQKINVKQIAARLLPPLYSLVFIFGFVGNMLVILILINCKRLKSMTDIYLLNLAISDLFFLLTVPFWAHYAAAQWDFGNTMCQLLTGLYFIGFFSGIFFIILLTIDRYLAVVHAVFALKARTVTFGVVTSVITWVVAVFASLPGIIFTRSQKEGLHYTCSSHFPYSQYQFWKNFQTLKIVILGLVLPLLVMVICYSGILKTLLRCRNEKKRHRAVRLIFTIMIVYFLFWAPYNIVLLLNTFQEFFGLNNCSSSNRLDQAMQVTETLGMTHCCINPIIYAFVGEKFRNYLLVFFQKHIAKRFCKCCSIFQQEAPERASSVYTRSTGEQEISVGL
On the technique in general: A change in cytosolic calcium serves as a functional read-out for many receptors and channels.

One may read the pIC50 as −log10 of the IC50, conventionally taken in molar units. Consider `CC(=O)N[C@@H](CCN1C2CCC1CC(n1c(C)nnc1C(C)C)C2)c1csc2ccccc12` (stereo partly specified) [US10167299, Example 28], for which the pIC50 was 7.17.
